Laboratory results published in patent US12162901B2, “N-acetylated sialic acids and related sialosides” (priority 2016, dated 2024).

Legend:
BiNanH2 [1] = target: T1, BiNanH2 (Bifidobacterium longum, UniProt A0ACD7UU12); assay: HPLC-based kinetic study of BiNanH2; type: biochemical, Bifidobacterium infantis; details: for kcat: BiNanH2, apparent, NaOAc buffer pH 5.0, 37° C., 10 min, spread and × 10^2 on wrapped line below; for activity of BiNanH2 towards the substrate: kinetic study, HPLC
T1 sequence (A0ACD7UU12 1-394): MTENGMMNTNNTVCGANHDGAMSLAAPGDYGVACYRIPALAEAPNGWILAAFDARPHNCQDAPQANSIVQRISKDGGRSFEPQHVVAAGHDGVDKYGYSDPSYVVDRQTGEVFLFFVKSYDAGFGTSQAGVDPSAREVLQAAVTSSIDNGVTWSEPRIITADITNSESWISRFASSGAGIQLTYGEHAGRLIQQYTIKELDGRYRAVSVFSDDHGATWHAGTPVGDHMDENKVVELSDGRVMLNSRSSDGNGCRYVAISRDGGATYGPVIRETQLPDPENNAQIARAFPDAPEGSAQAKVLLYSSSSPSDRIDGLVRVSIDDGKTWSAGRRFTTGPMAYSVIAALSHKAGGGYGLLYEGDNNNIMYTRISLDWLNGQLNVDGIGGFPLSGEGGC
Description: (§1) HPLC-based assays were carried out as described above for microtiter plate-based assays. The reactions were stopped by adding 40 μL of pre-chilled ethanol. The mixtures were then centrifuged and the supernatants were analyzed by Agilent 1290 Infinity HPLC system at 315 nm. […] A C18 reverse phase Rapid Resolution High Definition column (EclipsePlusC18 RRHD 1.8 μm, 2.1×50 mm, Agilent) was used for analyzing samples with Neu5Ac9NAcα2-3GalβpNP (2.1) or Neu5,9Ac2α2-6GalβpNP (2.20).
(§2) The reactions were stopped by adding 40 μL of pre-chilled ethanol. The mixtures were then centrifuged and the supernatants were analyzed by the HPLC system described above for HPLC-based assays. Apparent kinetic parameters were obtained by varying substrate concentrations from 0.1-40 mM (0.1, 0.2, 0.4, 1, 2, 4, 10, 20, and 40 mM) and fitting the data (the average values of duplicate assay results) into the Michaelis-Menten equation using Grafit 5.0.

SpNanC [2] = target: T2, SpNanC (Streptococcus pneumoniae, UniProt A0A0H2UQE4); assay: HPLC-based kinetic study of SpNanC; type: biochemical; details: for kcat: SpNanC, apparent, MES buffer pH 6.5, 37° C., 10 min, spread and × 10^2 on wrapped line below
Description: as §1
as §2, with “After stopping the” for “The”, “reactions” for “reactions were stopped”, “ethanol, the” for “ethanol. The”, “were” for “were then”, “system as” for “system”, “above.” for “above for HPLC-based assays.”

BiNanH2 [3] = target: T1, BiNanH2; assay: Sialidase substrate specificity of Leg glycosides (HPLC/capillary electrophoresis), BiNanH2; type: biochemical, Bifidobacterium infantis; details: 37° C., 16 hs, pH 5.0
SpNanA = target: T3, SpNanA (Streptococcus pneumoniae, UniProt P62575); assay: Sialidase substrate specificity of Leg glycosides (HPLC/capillary electrophoresis), SpNanA; type: biochemical; details: 37° C., 16 hs, pH 6.0
T3 construct: made in house

SpNanC [4] = target: T2, SpNanC; assay: Sialidase substrate specificity of Leg glycosides (HPLC/capillary electrophoresis), SpNanC; type: biochemical; details: 37° C., 16 hs, pH 6.5
A. ureafaciens sialidase = assay: Sialidase substrate specificity of Leg glycosides (HPLC/capillary electrophoresis), A. ureafaciens sialidase; type: biochemical, Arthrobacter ureafaciens; details: pH 5.5
[5] = target: C. perfringens sialidase (CpNanH) (Clostridium perfringens, UniProt P10481); type: biochemical; details: 37° C., 16 hs, pH 5.0
[6] = target: T4, human cytosolic sialidase hNEU2 (Homo sapiens, UniProt Q9Y3R4); assay: Sialidase substrate specificity of Leg glycosides (HPLC/capillary electrophoresis), hNEU2; type: biochemical; details: 37° C., 16 hs, pH 5.0
T4 construct: made in house
T4 sequence (Q9Y3R4 whole entry): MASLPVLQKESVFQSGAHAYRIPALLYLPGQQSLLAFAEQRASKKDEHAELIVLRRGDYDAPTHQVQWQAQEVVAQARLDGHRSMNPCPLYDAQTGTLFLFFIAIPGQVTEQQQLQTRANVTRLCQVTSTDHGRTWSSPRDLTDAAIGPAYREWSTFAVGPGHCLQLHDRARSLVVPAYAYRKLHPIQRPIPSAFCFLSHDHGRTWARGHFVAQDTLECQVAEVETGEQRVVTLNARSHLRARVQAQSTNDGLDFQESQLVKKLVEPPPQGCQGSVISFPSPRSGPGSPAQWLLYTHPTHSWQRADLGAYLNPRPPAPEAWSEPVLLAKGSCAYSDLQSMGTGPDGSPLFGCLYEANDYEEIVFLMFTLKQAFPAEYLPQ

V. cholerae sialidase = target: T5, V. cholerae sialidase (Vibrio cholerae serotype O1, UniProt P0C6E9); assay: Sialidase substrate specificity of Leg glycosides (HPLC/capillary electrophoresis), V. cholerae sialidase; type: biochemical; details: pH 5.5
T5 construct: purchased Roche

SpNanB = target: T6, SpNanB (Streptococcus pneumoniae serotype 4, UniProt Q54727, E68D/K536E/K577E/N393D/S59P); assay: Sialidase substrate specificity of Leg glycosides (HPLC/capillary electrophoresis), SpNanB; type: biochemical; details: 37° C., 16 hs, pH 6.0
T6 construct: made in house

[7] = substrate: CC(=O)N[C@H]1[C@H]([C@H](O)[C@H](O)CO)O[C@@](O[C@H]2[C@@H](O)[C@@H](CO)O[C@@H](Oc3ccc([N+](=O)[O-])cc3)[C@@H]2O)(C(=O)O)C[C@@H]1O; assay: Kinetic studies for PmST1 α2-3-sialidase activity (HPLC); type: biochemical, Pasteurella multocida; details: other: PmST1, apparent, NaOAc buffer pH 5.5, CMP (0.4 mM), 37° C., 10 min
Description: as §2, with “Kinetic studies for PmST1 were performed in duplicates at 37° C. for 10 min. […] The reactions” for “The reactions”, “by adding 20 μL of” for “by adding 40 μL of”, “above for sialidase substrate specificity studies assays. Apparent” for “above for HPLC-based assays. Apparent”

[8] = substrate: CC(=O)N[C@@H]1C(O)C[C@](OC2C(O)[C@H](Oc3ccc([N+](=O)[O-])cc3)OC(CO)[C@@H]2O)(C(=O)O)OC1[C@H](NC(C)=O)[C@@H](C)O; assay: as above; type: biochemical, Pasteurella multocida; details: other: PmST1, apparent, NaOAc buffer pH 5.5, CMP (0.4 mM), 37° C., 10 min
Description: as §2, with “Kinetic studies for PmST1 were performed in duplicates at 37° C. for 10 min. […] The reactions” for “The reactions”, “by adding 20 μL of” for “by adding 40 μL of”, “above for sialidase substrate specificity studies assays. Apparent” for “above for HPLC-based assays. Apparent”

CC(=O)NC[C@@H](O)[C@@H](O)[C@@H]1O[C@@](O[C@H]2[C@@H](O)[C@@H](CO)O[C@@H](Oc3ccc([N+](=O)[O-])cc3)[C@@H]2O)(C(=O)O)C[C@H](O)[C@H]1NC(C)=O [2.1, 4-Nitrophenyl O-(5,9-diacetamido-3,5,9-trideoxy-D-glycero-α-D-galacto-2-nonulopyranosylonic acid)-(2→3)-O-β-D-galactopyranoside]
kcat (BiNanH2 [1]): (1.08 × 10^2 s^−1
kcat (SpNanC [2]): (3.38 × 10^2 s^−1

CC(=O)NC[C@@H](O)[C@@H](O)[C@@H]1O[C@@](OC[C@H]2O[C@@H](Oc3ccc([N+](=O)[O-])cc3)[C@H](O)[C@@H](O)[C@H]2O)(C(=O)O)C[C@H](O)[C@H]1NC(C)=O [2.8, 4-Nitrophenyl O-(5,9-diacetamido-3,5,9-trideoxy-D-glycero-α-D-galacto-2-nonulopyranosylonic acid)-(2→6)-O-β-D-galactopyranoside]
kcat (BiNanH2 [1]): (8.07 × 10^2 s^−1

CC(=O)N[C@H]1[C@H]([C@H](O)[C@H](O)CO)O[C@@](O[C@H]2[C@@H](O)[C@@H](CO)O[C@@H](Oc3ccc([N+](=O)[O-])cc3)[C@@H]2O)(C(=O)O)C[C@@H]1O [2.17, Neu5Acα2-3GalβpNP]
kcat (BiNanH2 [1]): (1.66 × 10^2 s^−1
kcat (SpNanC [2]): (3.65 × 10^2 s^−1

CC(=O)N[C@H]1[C@H]([C@H](O)[C@H](O)CO)O[C@@](OC[C@H]2O[C@@H](Oc3ccc([N+](=O)[O-])cc3)[C@H](O)[C@@H](O)[C@H]2O)(C(=O)O)C[C@@H]1O [2.18, Neu5Acα2-6GalβpNP]
kcat (BiNanH2 [1]): (3.31 × 10^2 s^−1

CC(=O)N[C@H]1[C@H]([C@H](O)[C@H](O)COC(C)=O)O[C@@](O[C@H]2[C@@H](O)[C@@H](CO)O[C@@H](Oc3ccc([N+](=O)[O-])cc3)[C@@H]2O)(C(=O)O)C[C@@H]1O [2.19, Neu5,9Ac2α2-3GalβpNP]
activity of BiNanH2 towards the substrate (BiNanH2 [1]): not high enough for obtaining apparent kinetics parameters
catalytic efficiency of SpNanC, fold higher than for 2.1 and 2.17 (SpNanC [2]; SpNanC kcat/KM ratio): 2.2-2.3 fold
kcat (SpNanC [2]): (3.78 × 10^2 s^−1

CC(=O)NC1C(O)CC(OCC2OC(Oc3ccc([N+](=O)[O-])cc3)C(O)C(O)C2O)(C(=O)O)OC1C(O)C(O)COC(C)=O (stereo not drawn) [2.20, Neu5,9Ac2α2-6GalβpNP]
activity of BiNanH2 towards the substrate (BiNanH2 [1]): not high enough for obtaining apparent kinetics parameters

C[C@@H](O)[C@@H](N=[N+]=[N-])C1O[C@@](OCC2O[C@@H](Oc3ccc([N+](=O)[O-])cc3)C(O)C(O)[C@H]2O)(C(=O)O)CC(O)[C@H]1N=[N+]=[N-] (stereo partly drawn) [3-14, Leg5,7diN3α2-6GalβpNP]
activity of BiNanH2 for the compound (BiNanH2 [3]): did not show activity
activity of SpNanA for the compound (SpNanA): did not show activity
activity of SpNanC for the compound (SpNanC [4]): did not show activity
activity of A. ureafaciens sialidase for the compound (A. ureafaciens sialidase): did not show activity
activity of C. perfringens sialidase (CpNanH) for the compound [5]: did not show activity
activity of hNEU2 for the compound [6]: did not show activity
activity of V. cholerae sialidase for the compound (V. cholerae sialidase): did not show activity
activity of SpNanB for the compound (SpNanB): did not show activity

CC(=O)N[C@@H]1C(O)C[C@](OCC2O[C@@H](Oc3ccc([N+](=O)[O-])cc3)C(O)C(O)[C@H]2O)(C(=O)O)OC1[C@H](NC(C)=O)[C@@H](C)O (stereo partly drawn) [3-20, Leg5,7Ac2α2-6GalβpNP]
activity of BiNanH2 for the compound (BiNanH2 [3]): did not show activity
activity of SpNanA for the compound (SpNanA): did not show activity
activity of SpNanC for the compound (SpNanC [4]): did not show activity
activity of A. ureafaciens sialidase for the compound (A. ureafaciens sialidase): did not show activity
activity of C. perfringens sialidase (CpNanH) for the compound [5]: did not show activity
activity of hNEU2 for the compound [6]: did not show activity
activity of V. cholerae sialidase for the compound (V. cholerae sialidase): did not show activity
activity of SpNanB for the compound (SpNanB): did not show activity

B1: PmST1 (α2-3-sialidase activity) (Pasteurella multocida) (protein)
chain: KTITLYLDPASLPALNQLMDFTQNNEDKTHPRIFGLSRFKIPDNIITQYQNIHFVELKDNRPTEALFTILDQYPGNIELNIHLNIAHSVQLIRPILAYRFKHLDRVSIQQLNLYDDGSMEYVDLEKEENKDISAEIKQAEKQLSHYLLTGKIKFDNPTIARYVWQSAFPVKYHFLSTDYFEKAEFLQPLKEYLAENYQKMDWTAYQQLTPEQQAFYLTLVGFNDEVKQSLEVQQAKFIFTGTTTWEGNTDVREYYAQQQLNLLNHFTQAEGDLFIGDHYKIYFKGHPRGGEINDYILNNAKNITNIPANISFEVLMMTGLLPDKVGGVASSLYFSLPKEKISHIIFTSNKQVKSKEDALNNPYVKVMRRLGIIDESQVIFWDSLKQL
Km [7]: 4.73 ± 0.31 mM
kcat [7]: 9.26 ± 0.185 s⁻¹
kcat/Km [7]: 1950 M⁻¹ s⁻¹
Km [8]: 17.38 ± 0.70 mM
kcat [8]: 1.16 ± 0.0217 s⁻¹
kcat/Km [8]: 66.7 M⁻¹ s⁻¹
